Measured values reported in patent US20040220084A1, “Methods for nucleic acid delivery” (priority 2003, published 2004).

Legend:
[1] = test system: JJ5 Breast Cancer cells; test: Cytotoxicity (colony-forming) assay against JJ5 breast cancer cells; type: cell-based, human; conditions: 14 days
Experimental: JJ5 breast cancer cells were incubated with increasing amounts EGF-^111In-labeled transferrin composition or ^111In-oxine, centrifuged to remove free ligand, assayed and then seeded into 50 mm culture dishes. The number of cells seeded was varied from 3×10^4 to 3×10^6 cells to obtain approximately 400 viable colonies/dish taking into account the plating efficiency and the expected level of cytotoxicity. Control dishes contained JJ5 breast cancer cells which were incubated with normal saline. Growth medium was added and the cells were cultured at 37° C./5% CO^2 for 14 days. The growth medium was removed and the colonies were stained with methylene blue (1% in a 1:1 mixture of ethanol and water) then washed twice. The number of colonies per dish was counted using a manual colony counter (Manostat Corp). The plating efficiency was calculated by dividing the number of colonies observed by the number of cells seeded in each dish. The surviving fraction at increasing amounts of EGF-^111In-labeled transferrin composition or ^111In-oxine was calculated by dividing the plating efficiency for dishes containing treated cells with that observed for control dishes with normal saline.

[2] = test system: JJ5 Breast Cancer cells; test: Growth inhibition assay against JJ5 breast cancer cells; type: cell-based, human; conditions: 4 days culture
Experimental: JJ5 breast cancer cells (prepared from BCBM JJ5) expressing approximately 10^6 epidermal growth factor receptors/cell were incubated with EGF-^111In-labeled transferrin composition, unlabeled hEGF or ^111In-oxine, centrifuged to remove free ligand, then assayed and seeded (10^6 cells/dish) into 35 mm culture dishes. Growth medium was added and the cells were cultured at 37° C./5% CO^2 for 4 days. The cells were then recovered by trypsinization and counted in a hemocytometer. Control dishes contained cells cultured in growth medium containing ^111In-DTPA or growth medium alone.

[3] = test system: JJ5 Breast Cancer cells; test: Binding of EGF-111In-labeled transferrin composition to JJ5 breast cancer cells (radioligand binding, kinetics, internalization); design: species or system human
Experimental: For the normal breast cell line HBL-100, 8000 EGFR/cell has been reported. The expression of EGFR in breast cancer cell lines has a reported range of 800 EGFR/cell for MCF-7 cells to 10^6 EGFR/cell for MDA-MB-468 cells. […] Utilizing the Auger electron emitter ^111In was used in the initial experiments to illustrate the utility of the invention using EGF-111In-labeled transferrin compositions. The EGF-^111-In-labeled transferrin (0.25-80 ng) was incubated with 1.5×10^6 cells/dish JJ5 Breast Cancer (prepared from BCBM JJ5) cells in 1 mL of 0.1% human serum albumin in 35 mm multiwell culture dishes at 37° C. for 30 minutes. The cells were transferred to a centrifuge tube and centrifuged. The cell pellet was separated from the supernatant and counted in a g-scintillation counter to determine bound (B) and free (F) radioactivity. Non-specific binding was determined by conducting the assay in 100 nM hEGF. The kinetics of binding was determined by incubating 1 ng of EGF-^111In-labeled transferrin composition with 3×10^6 JJ5 Breast Cancer cells at 37° C. and determining the proportion of radioactivity bound to the cells at various times up to 24 hours. Internalized fraction was measured by determining the proportion of radioactivity which could not be displaced from the cell surface by 100 nM hEGF. Cell-associated binding (surface-binding and intracellular accumulation) was expressed as a percentage of medium radioactivity bound per mg of cell study protein.

Compound | cell killing ([1]; <6 pCi/cell) | growth inhibition of the JJ5 cells ([2]; 3.5 pCi/cell) [%] | reduction in cell survival for JJ5 cells ([1]; 8 pCi/cell) [%] | growth inhibition of the JJ5 cells compared to the medium control ([2]; 3.4 pCi/cell) [%] | internalization by cancer cells (in words) ([3]; JJ5 cells) | binding by the breast cancer cells (kinetics, in words) ([3]; JJ5 cells, 37° C.) | retained by the breast cancer cells ([3]; JJ5 cells, 37° C.) | affinity constant for binding to JJ5 cells ([3]; JJ5 cells, 37° C., 30 minutes) [L/mol] | 111In radioactivity lost from the cells in vitro ([3]; over a 24 hour period at 37° C.) [%]
[In+3].[O-]c1cccc2cccnc12.[O-]c1cccc2cccnc12.[O-]c1cccc2cccnc12 [^111In-oxine, reference compound] | greater than 99% | 91 |  |  |  |  |  |  | 
EGF-^111In-labeled transferrin composition: human EGF linked to human transferrin radiolabeled with Auger electron emitter 111In at the iron-binding sites |  |  | 99 | 83 | rapidly internalized | rapidly bound | at least 24 hours | 8e+08 | < 8
